Test results: ChEMBL document CHEMBL1201862, “PubChem BioAssay data set” (2004)
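Compound exposure: 48 hours, 5 concentrations, 96-well plates. Here, GI50 denotes the concentration required for 50% inhibition of growth.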 Active and inactive are the calls of the source. No stated cut-off is given here; in the data, active = GI50 up to about 1.1 µM and inactive = higher.

What was measured:
Assay in all cases: NCI-60 cell line screen, 48 h
Malme-3M = tested on: Malme-3M
NCI-H460 = tested on: NCI-H460
SN12C = tested on: SN12C
SF-539 = tested on: SF-539
OVCAR-5 = tested on: OVCAR-5
TK-10 = tested on: TK-10
NCI-H226 = tested on: NCI-H226
U-251 = tested on: U-251
HCT-116 = tested on: HCT-116
UACC-257 = tested on: UACC-257
SW-620 = tested on: SW-620
SK-MEL-28 = tested on: SK-MEL-28
COLO 205 = tested on: COLO 205
EKVX = tested on: EKVX
UACC-62 = tested on: UACC-62
IGROV-1 = tested on: IGROV-1
SK-MEL-5 = tested on: SK-MEL-5

Row | SMILES | GI50 (Malme-3M) | GI50 (NCI-H460) | GI50 (SN12C) | GI50 (SF-539) | GI50 (OVCAR-5) | GI50 (TK-10) | GI50 (NCI-H226) | GI50 (U-251) | GI50 (HCT-116) | GI50 (UACC-257) | GI50 (SW-620) | GI50 (SK-MEL-28) | GI50 (COLO 205) | GI50 (EKVX) | GI50 (UACC-62) | GI50 (IGROV-1) | GI50 (SK-MEL-5)
1 | CC(NC(=O)C(=O)N/N=C1\C[C@@H](c2ccccc2)Nc2ccccc21)c1ccccc1 (some centres undefined) | 20.5 µM (inactive) | > 100 µM (inactive) | 1.06 µM (active) | > 100 µM (inactive) | > 100 µM (inactive) | > 100 µM (inactive) | 10.4 µM (inactive) | > 100 µM (inactive) | > 100 µM (inactive) | 0.382 µM (active) | > 100 µM (inactive) | > 100 µM (inactive) | 48.2 µM (inactive) | 17.1 µM (inactive) |  |  | 
2 | CNS(=O)(=O)NNS(=O)(=O)c1ccc(F)cc1 |  | 59.3 µM (inactive) |  | > 100 µM (inactive) |  |  | > 100 µM (inactive) | > 100 µM (inactive) | > 100 µM (inactive) | > 100 µM (inactive) | > 100 µM (inactive) |  | > 100 µM (inactive) | > 100 µM (inactive) | > 100 µM (inactive) | > 100 µM (inactive) | > 100 µM (inactive)
3 | NCc1c(C(N)=O)ncn1Cc1ccccc1 |  | > 100 µM (inactive) | > 100 µM (inactive) | > 100 µM (inactive) |  | > 100 µM (inactive) |  | > 100 µM (inactive) | > 100 µM (inactive) | > 100 µM (inactive) | > 100 µM (inactive) | > 100 µM (inactive) | > 100 µM (inactive) | > 100 µM (inactive) | > 100 µM (inactive) | > 100 µM (inactive) | > 100 µM (inactive)
4 | CC(C)(C)c1cc(O)c2c(c1O)C(=O)CCC2 |  | 48 µM (inactive) | 41.8 µM (inactive) | 42.3 µM (inactive) |  | 40.9 µM (inactive) |  | 50.7 µM (inactive) | 31.7 µM (inactive) | 29.4 µM (inactive) | 57.8 µM (inactive) | 42.6 µM (inactive) | 73.8 µM (inactive) | 54.8 µM (inactive) | 26 µM (inactive) | 40.7 µM (inactive) | 18.4 µM (inactive)
5 | CC(=O)NNc1nc(C)c(C(/C=C/c2ccc(Cl)cc2)=N/NC(=O)C[N+](C)(C)C)s1 | > 100 µM (inactive) | > 100 µM (inactive) |  | > 100 µM (inactive) | > 100 µM (inactive) | > 100 µM (inactive) | > 100 µM (inactive) |  | > 100 µM (inactive) | > 100 µM (inactive) | > 100 µM (inactive) | > 100 µM (inactive) | > 100 µM (inactive) | > 100 µM (inactive) | > 100 µM (inactive) | > 100 µM (inactive) | > 100 µM (inactive)
6 | Cc1ccc(Nc2nc(C)c(C(/C=C/c3ccc4c(c3)OCO4)=N/Nc3ccc([N+](=O)[O-])cc3[N+](=O)[O-])s2)c([N+](=O)[O-])c1 | 65.3 µM (inactive) | 41 µM (inactive) | 28 µM (inactive) | 36.3 µM (inactive) | 43.9 µM (inactive) | 37.8 µM (inactive) | 25 µM (inactive) | 49.2 µM (inactive) | 52.7 µM (inactive) | 53 µM (inactive) | 45 µM (inactive) | > 100 µM (inactive) | 56.5 µM (inactive) | 24.5 µM (inactive) | 3.59 µM (inactive) | 62.7 µM (inactive) | 
7 | Cc1ccc(S(=O)(=O)N/N=C(\C(=O)Nc2cccc([N+](=O)[O-])c2)c2nc3ccc([N+](=O)[O-])cc3nc2O)cc1 | 77.3 µM (inactive) | 33.5 µM (inactive) | > 100 µM (inactive) | 24.6 µM (inactive) | 46.3 µM (inactive) |  | 37.2 µM (inactive) | 70.3 µM (inactive) | 27.5 µM (inactive) | 59.8 µM (inactive) | 40.6 µM (inactive) | > 100 µM (inactive) | 28.2 µM (inactive) | 33.5 µM (inactive) | 25.4 µM (inactive) | > 100 µM (inactive) | 26 µM (inactive)
8 | CCCCCCCCCCCCC/C=C1\C[C@H](O)COC1=O | 21 µM (inactive) | 17.3 µM (inactive) | 14.9 µM (inactive) | 19.8 µM (inactive) | 19.2 µM (inactive) | 17.6 µM (inactive) | 16.3 µM (inactive) | 17.7 µM (inactive) | 15.9 µM (inactive) | 14.8 µM (inactive) | 15.4 µM (inactive) | 16.2 µM (inactive) |  | 17.5 µM (inactive) | 13.7 µM (inactive) | 18.1 µM (inactive) | 13.7 µM (inactive)
9 | COC(=O)C1=C(C(=O)OC)C2=S(SC3=C2CCCC3)S1 (centres undefined) | 20.1 µM (inactive) | 28.1 µM (inactive) | 25.5 µM (inactive) | 25.1 µM (inactive) | 27.4 µM (inactive) | 30.1 µM (inactive) |  | 19.6 µM (inactive) |  | 37.2 µM (inactive) | 0.467 µM (active) | 29.7 µM (inactive) | 23.4 µM (inactive) | > 100 µM (inactive) | 26 µM (inactive) | 85.7 µM (inactive) | 0.378 µM (active)
10 | N#CC(/C(CCCC(=O)Nc1cccc([N+](=O)[O-])c1)=N\NC(=O)c1c(O)ccc2ccccc12)c1nc2ccccc2s1 (centres undefined) | 35 µM (inactive) | 13.7 µM (inactive) | 25.6 µM (inactive) | 15.3 µM (inactive) | 37.7 µM (inactive) |  | 21.9 µM (inactive) | 16.3 µM (inactive) | 8.43 µM (inactive) | 35.5 µM (inactive) | 44.8 µM (inactive) | 21.5 µM (inactive) | 30.1 µM (inactive) | 35.4 µM (inactive) |  | 13.3 µM (inactive) | 28.2 µM (inactive)
11 | CCC(=O)OC[n+]1ccc2c(C)c3[nH]c4ccc(OC)cc4c3c(C)c2c1 | 0.627 µM (active) | 0.0199 µM (active) | < 0.01 µM (active) | 0.243 µM (active) | 0.299 µM (active) | 0.94 µM (active) | 0.348 µM (active) | 0.0547 µM (active) | 0.0182 µM (active) | 0.7 µM (active) | 0.0288 µM (active) | 0.759 µM (active) | 0.0906 µM (active) |  |  | 0.048 µM (active) | 0.728 µM (active)
12 | CC1OC(n2ccc3ccc([N+](=O)[O-])cc32)C(O)C(O)C1O (centres undefined) | > 100 µM (inactive) | > 100 µM (inactive) | > 100 µM (inactive) | > 100 µM (inactive) | > 100 µM (inactive) | > 100 µM (inactive) | > 100 µM (inactive) | > 100 µM (inactive) | > 100 µM (inactive) | > 100 µM (inactive) | > 100 µM (inactive) | > 100 µM (inactive) | > 100 µM (inactive) | > 100 µM (inactive) | > 100 µM (inactive) | > 100 µM (inactive) | > 100 µM (inactive)
13 | [O-]/[N+](=C\c1ccccc1)[C@H](COCc1ccccc1)c1ccccc1 | > 100 µM (inactive) | > 100 µM (inactive) |  | > 100 µM (inactive) | > 100 µM (inactive) | > 100 µM (inactive) |  | 80.9 µM (inactive) | 40.8 µM (inactive) | > 100 µM (inactive) | > 100 µM (inactive) | > 100 µM (inactive) | > 100 µM (inactive) | 25.1 µM (inactive) |  | > 100 µM (inactive) | 63.1 µM (inactive)
14 | CC1=CCC[C@@]2(C)C(CC[C@@H]2C(C)/C=C/C(C)C)c2ccc(cc2C(=O)O)C[C@@H](O)CC1 (some centres undefined) | 15.7 µM (inactive) | 7.01 µM (inactive) | 16 µM (inactive) | 8.55 µM (inactive) | 16.4 µM (inactive) | 12.5 µM (inactive) | 18.5 µM (inactive) | 3.94 µM (inactive) | 5.21 µM (inactive) | 16.6 µM (inactive) | 14.9 µM (inactive) | 14.7 µM (inactive) |  |  | 10.9 µM (inactive) | 12.3 µM (inactive) | 3.59 µM (inactive)
15 | CN(C)CCNC(=O)c1cccc2nc3c(Cl)cccc3nc12 | 2 µM (inactive) |  | 4.52 µM (inactive) | 4.75 µM (inactive) | 7.93 µM (inactive) | 4.09 µM (inactive) | 3.55 µM (inactive) | 5.18 µM (inactive) | 3.16 µM (inactive) | 4.93 µM (inactive) | 3.92 µM (inactive) | 4.7 µM (inactive) | 3.75 µM (inactive) | 8.61 µM (inactive) | 2.02 µM (inactive) | 6.41 µM (inactive) | 5.06 µM (inactive)
16 | Cc1ccc(C(=O)Nc2ccccc2)cc1/N=N/N(C)C |  | > 100 µM (inactive) | > 100 µM (inactive) | > 100 µM (inactive) |  | > 100 µM (inactive) |  | > 100 µM (inactive) | > 100 µM (inactive) | > 100 µM (inactive) | > 100 µM (inactive) | > 100 µM (inactive) |  | > 100 µM (inactive) | > 100 µM (inactive) | > 100 µM (inactive) | > 100 µM (inactive)
17 | COC(=O)C1N=CSCC1(C)O (centres undefined) | > 100 µM (inactive) | > 100 µM (inactive) | > 100 µM (inactive) | > 100 µM (inactive) | > 100 µM (inactive) | > 100 µM (inactive) | > 100 µM (inactive) |  | > 100 µM (inactive) | > 100 µM (inactive) | > 100 µM (inactive) | > 100 µM (inactive) | > 100 µM (inactive) | > 100 µM (inactive) | > 100 µM (inactive) | > 100 µM (inactive) | > 100 µM (inactive)
18 | O=[N+]([O-])c1nccn1CC(O)c1ccccc1 (centres undefined) | > 100 µM (inactive) | > 100 µM (inactive) | > 100 µM (inactive) | > 100 µM (inactive) | > 100 µM (inactive) | > 100 µM (inactive) | > 100 µM (inactive) | > 100 µM (inactive) |  | > 100 µM (inactive) | > 100 µM (inactive) | > 100 µM (inactive) | > 100 µM (inactive) | > 100 µM (inactive) | > 100 µM (inactive) | > 100 µM (inactive) | > 100 µM (inactive)
